From ChEMBL document CHEMBL4270577, “Synthesis, anticancer activity and molecular modeling studies of 1,2,4-triazole derivatives as EGFR inhibitors” (Eur J Med Chem, 2018)

Assays:
HL-60(TB) = assay: Cytotoxicity against human HL-60(TB) cells incubated for 48 hrs by sulforhodamine B assay; format: functional; settings: HL-60, 48 h
MOLT-4 = assay: Cytotoxicity against human MOLT4 cells incubated for 48 hrs by sulforhodamine B assay; format: functional; settings: MOLT-4, 48 h
NCI-H23 = assay: Cytotoxicity against human NCI-H23 cells incubated for 48 hrs by sulforhodamine B assay; format: functional; settings: NCI-H23, 48 h
NCI-H522 = assay: Cytotoxicity against human NCI-H522 cells incubated for 48 hrs by sulforhodamine B assay; format: functional; settings: NCI-H522, 48 h
COLO 205 = assay: Cytotoxicity against human COLO205 cells incubated for 48 hrs by sulforhodamine B assay; format: functional; settings: COLO 205, 48 h
HCT-116 = assay: Cytotoxicity against human HCT116 cells incubated for 48 hrs by sulforhodamine B assay; format: functional; settings: HCT-116, 48 h
HT-29 = assay: Cytotoxicity against human HT-29 cells incubated for 48 hrs by sulforhodamine B assay; format: functional; settings: HT-29, 48 h
SW-620 = assay: Cytotoxicity against human SW620 cells incubated for 48 hrs by sulforhodamine B assay; format: functional; settings: SW-620, 48 h
SF-268 = assay: Cytotoxicity against human SF268 cells incubated for 48 hrs by sulforhodamine B assay; format: functional; settings: SF-268, 48 h
SF-295 = assay: Cytotoxicity against human SF295 cells incubated for 48 hrs by sulforhodamine B assay; format: functional; settings: SF-295, 48 h
SF-539 = assay: Cytotoxicity against human SF539 cells incubated for 48 hrs by sulforhodamine B assay; format: functional; settings: SF-539, 48 h
SNB-19 = assay: Cytotoxicity against human SNB19 cells incubated for 48 hrs by sulforhodamine B assay; format: functional; settings: SNB-19, 48 h
U-251 = assay: Cytotoxicity against human U251 cells incubated for 48 hrs by sulforhodamine B assay; format: functional; settings: U-251, 48 h
SK-MEL-2 = assay: Cytotoxicity against human SK-MEL-2 cells incubated for 48 hrs by sulforhodamine B assay; format: functional; settings: SK-MEL-2, 48 h
UACC-257 = assay: Cytotoxicity against human UACC257 cells incubated for 48 hrs by sulforhodamine B assay; format: functional; settings: UACC-257, 48 h
UACC-62 = assay: Cytotoxicity against human UACC62 cells incubated for 48 hrs by sulforhodamine B assay; format: functional; settings: UACC-62, 48 h
IGROV-1 = assay: Cytotoxicity against human IGROV1 cells incubated for 48 hrs by sulforhodamine B assay; format: functional; settings: IGROV-1, 48 h
OVCAR-4 = assay: Cytotoxicity against human OVCAR4 cells incubated for 48 hrs by sulforhodamine B assay; format: functional; settings: OVCAR-4, 48 h
SK-OV-3 = assay: Cytotoxicity against human SKOV3 cells incubated for 48 hrs by sulforhodamine B assay; format: functional; settings: SK-OV-3, 48 h
786-0 = assay: Cytotoxicity against human 786-0 cells incubated for 48 hrs by sulforhodamine B assay; format: functional; settings: 786-0, 48 h
CAKI-1 = assay: Cytotoxicity against human Caki1 cells incubated for 48 hrs by sulforhodamine B assay; format: functional; settings: CAKI-1, 48 h
RXF 393 = assay: Cytotoxicity against human RXF393 cells incubated for 48 hrs by sulforhodamine B assay; format: functional; settings: RXF 393, 48 h
SN12C = assay: Cytotoxicity against human SN12C cells incubated for 48 hrs by sulforhodamine B assay; format: functional
UO-31 = assay: Cytotoxicity against human UO31 cells incubated for 48 hrs by sulforhodamine B assay; format: functional; settings: UO-31, 48 h
MCF7 = assay: Cytotoxicity against human MCF7 cells incubated for 48 hrs by sulforhodamine B assay; format: functional; settings: MCF7, 48 h
Hs-578T = assay: Cytotoxicity against human Hs 578T cells incubated for 48 hrs by sulforhodamine B assay; format: functional
MDA-MB-468 = assay: Cytotoxicity against human MDA-MB-468 cells incubated for 48 hrs by sulforhodamine B assay; format: functional; settings: MDA-MB-468, 48 h
Tubulin (Homo sapiens) = Tubulin (Homo sapiens) (UniProt P68371+Q9H4B7+P0DPH7+P68366+Q13509+Q71U36+P04350+Q3ZCM7+P07437+P68363+Q9BQE3+Q6PEY2+Q13885+Q9BVA1+Q9BUF5); assay: Inhibition of tubulin (unknown origin) polymerization assessed as polymerized tubulin level at 5 to 25 uM by fluorescence assay; format: protein-complex assay
A549 [1] = assay: Induction of apoptosis in human A549 cells assessed as early apoptotic cells at 1.4 uM after 24 hrs by Annexin V/propidium iodide staining based flow cytometric analysis (reference value: 0.22%); format: functional
A549 [2] = assay: Induction of apoptosis in human A549 cells assessed as late apoptotic cells at 1.4 uM after 24 hrs by Annexin V/propidium iodide staining based flow cytometric analysis (reference value: 0.08%); format: functional
A549 [3] = assay: Induction of apoptosis in human A549 cells assessed as viable cells at 1.4 uM after 24 hrs by Annexin V/propidium iodide staining based flow cytometric analysis (reference value: 98.03%); format: functional; settings: A549, 24 h, read-out: Activity
A549 [4] = assay: Cell cycle arrest in human A549 cells assessed as accumulation at G2 phase at 1.4 uM after 24 hrs by propidium iodide staining based flow cytometry (reference value: 4.19%); format: functional
[5] = read-out: LC50 (the source's name)

In the case of COc1ccc(-c2nc3sc(-c4ccc(Cl)cc4)cn3n2)cc1, the GI50 (HL-60(TB)) is reported as greater than 50 µM, the TGI (HL-60(TB)) is reported as greater than 50 µM and the CC50 (HL-60(TB); [5]) is reported as greater than 50 µM. For the same compound, the GI50 (MOLT-4) was 11.3 µM, the TGI (MOLT-4) was greater than 50 µM and the CC50 (MOLT-4; [5]) was greater than 50 µM. It also gave a GI50 (NCI-H23) of 6.66 µM, a TGI (NCI-H23) greater than 50 µM and a CC50 (NCI-H23; [5]) greater than 50 µM. It also gave a GI50 (NCI-H522) of 14.9 µM, a TGI (NCI-H522) greater than 50 µM and a CC50 (NCI-H522; [5]) greater than 50 µM. The GI50 (COLO 205) was 2.56 µM, the TGI (COLO 205) was greater than 50 µM and the CC50 (COLO 205; [5]) was greater than 50 µM. For the same compound, the GI50 (HCT-116) was 1.21 µM, the TGI (HCT-116) was 3.48 µM and the CC50 (HCT-116; [5]) was greater than 50 µM. For the same compound, the GI50 (HT-29) was 2.96 µM, the TGI (HT-29) was greater than 50 µM and the CC50 (HT-29; [5]) was greater than 50 µM. The GI50 (SW-620) was 5.51 µM, the TGI (SW-620) was greater than 50 µM and the CC50 (SW-620; [5]) was greater than 50 µM. The GI50 (SF-268) was 48 µM, the TGI (SF-268) was greater than 50 µM and the CC50 (SF-268; [5]) was greater than 50 µM. The GI50 (SF-295) was 2.81 µM, the TGI (SF-295) was 31.8 µM and the CC50 (SF-295; [5]) was greater than 50 µM. It also gave a GI50 (SF-539) of 1.85 µM, a TGI (SF-539) of 21.5 µM and a CC50 (SF-539; [5]) greater than 50 µM. The GI50 (SNB-19) was 2.47 µM, the TGI (SNB-19) was greater than 50 µM and the CC50 (SNB-19; [5]) was greater than 50 µM. The GI50 (U-251) was 1.03 µM, the TGI (U-251) was 2.29 µM and the CC50 (U-251; [5]) was 5.53 µM. The GI50 (SK-MEL-2) was greater than 50 µM, the TGI (SK-MEL-2) was greater than 50 µM and the CC50 (SK-MEL-2; [5]) was greater than 50 µM. For the same compound, the GI50 (UACC-257) was greater than 50 µM, the TGI (UACC-257) was greater than 50 µM and the CC50 (UACC-257; [5]) was greater than 50 µM. For the same compound, the GI50 (UACC-62) was 8.24 µM, the TGI (UACC-62) was greater than 50 µM and the CC50 (UACC-62; [5]) was greater than 50 µM. For the same compound, the GI50 (IGROV-1) was 1.15 µM, the TGI (IGROV-1) was 8.13 µM and the CC50 (IGROV-1; [5]) was greater than 50 µM. It also gave a GI50 (OVCAR-4) of 0.766 µM, a TGI (OVCAR-4) of 1.63 µM and a CC50 (OVCAR-4; [5]) of 3.45 µM. It also gave a GI50 (SK-OV-3) of 11.7 µM, a TGI (SK-OV-3) greater than 50 µM and a CC50 (SK-OV-3; [5]) greater than 50 µM. The GI50 (786-0) was 1.06 µM, the TGI (786-0) was 2.41 µM and the CC50 (786-0; [5]) was 6.7 µM. It also gave a GI50 (CAKI-1) of 1.79 µM, a TGI (CAKI-1) of 8.92 µM and a CC50 (CAKI-1; [5]) of 48.9 µM. For the same compound, the GI50 (RXF 393) was 5.99 µM, the TGI (RXF 393) was 39.7 µM and the CC50 (RXF 393; [5]) was greater than 50 µM. It also gave a GI50 (SN12C) of 1.84 µM, a TGI (SN12C) greater than 50 µM and a CC50 (SN12C; [5]) greater than 50 µM. It also gave a GI50 (UO-31) of 1.19 µM, a TGI (UO-31) of 4.51 µM and a CC50 (UO-31; [5]) of 30.6 µM. It also gave a GI50 (MCF7) of 2.62 µM, a TGI (MCF7) greater than 50 µM and a CC50 (MCF7; [5]) greater than 50 µM. For the same compound, the GI50 (Hs-578T) was 2.31 µM, the TGI (Hs-578T) was greater than 50 µM and the CC50 (Hs-578T; [5]) was greater than 50 µM. It also gave a GI50 (MDA-MB-468) of 2.08 µM, a TGI (MDA-MB-468) greater than 50 µM and a CC50 (MDA-MB-468; [5]) greater than 50 µM. The Activity (Tubulin (Homo sapiens)) was 1510 a.u, the Activity (A549 [1]) was 4.23% and the Activity (A549 [2]) was 4.62%. The viability at 1.4 µM (A549 [3]) was 88% and the Activity (A549 [4]) was 14.36%.
